# According to US20190204338A1, “Methods for the Characterisation of Interaction Sites on Target Proteins” (Phylogica Limited, priority 2012, published 2019):
# How the values were obtained:
# Assay type in all cases: cell-based, human
# [1] = test system: Sulfiredoxin (Srxn1) promoter; experiment: Srxn1-luciferase reporter assay (PMA-dependent activation); conditions: U2oS cells, normalised to Renilla, n=3, p<0.05
# Experimental: From this primary screen, we concentrated on the PYC36-like, AP1-inhibitory Phylomers, and selected 14 initial hits. Of these, 7 (TABLE 2 and FIG. 8) were confirmed to inhibit AP1-luciferase activity in a secondary reporter assay normalised to Renilla luciferase expression (FIG. 2). Briefly, Phylomer DNA of the primary hits was re-prepared from the original clones selected for the mini-library (Endo-Free Maxi-Prep, Qiagen), and 5×10^5 U2oS cells were co-transfected with 800 ng DNA comprising AP1-luciferase or Srxn1-luciferase (Papadia et al., 2008) (Firefly), pRL-TK (Renilla) and Phylomer plasmid. Reporter activity/inhibition was calculated by normalizing Firefly activity to Renilla.
# As an additional confirmatory experiment, we asked whether these 6 Phylomers specifically regulated expression of a known AP1 target gene by testing their effect on the Sulfiredoxin (Srxn1) promoter, recently established as an AP1-dependent component of the anti-oxidant response mechanism (Papadia et al., 2008). Of the 6 Phylomers tested, 3 inhibited PMA-dependent activation of this promoter: 6G8, 25C3 and 48E6 (FIG. 3a). Importantly, these Phylomers had no effect upon PMA-induced transcription from a control Srxn1 promoter in which the AP1 response elements had been ablated by mutation (FIG. 3b), confirming that their effect on the Srxn1 promoter is AP1-specific.
# [2] = test system: Srxn1 promoter containing mutated AP1 response elements; experiment: Control Srxn1 promoter reporter with mutated AP1 response elements; conditions: n=3, p>0.05
# Experimental: From this primary screen, we concentrated on the PYC36-like, AP1-inhibitory Phylomers, and selected 14 initial hits. […] Reporter activity/inhibition was calculated by normalizing Firefly activity to Renilla.
# AP1-luciferase reporter = experiment: Primary phenotypic screen: PMA-mediated AP1-driven luciferase reporter in transfected U2oS cells; conditions: U2oS cells co-transfected with Phylomer plasmid, PMA 100 nM, read 24 hours later
# Experimental: The mini-library of 3120 individual transfection-ready plasmids was used in a microtitre plate-based transfection assay system (ie, and array-based format) in the U2oS cell line, and the effects of the Phyomers expressed from this mini-library were assessed upon PMA-mediated AP1-driven luciferase reporter expression. The previously identified Phylomer PYC36 ([…] SEQ ID NO: 5)—found by reverse target-based yeast 2-hybrid screening against c-Jun bait, and known to affect AP1-dependent transcription (Mead et al., 2010 J. Neurochem, 112: 258-270)—was used as positive control.
# Briefly, in triplicate plates, 1×10^5 U2oS cells were plated overnight and co-transfected with 100 ng of both AP1-luciferase reporter (Stratagene) and either an individual Phylomer construct from the mini-libary, or positive control (pcDNA3.1/PYC36) or vector control (pcDNA3.1/nV5-DEST-GusB). PMA (100 nM) was used to induce AP1-dependent luciferase expression 6 hours post-transfection, and luciferase activity was measured 24 hours later (SteadlyGlo, Promega).
substance,measurement,setting,value
6G8: AP1-inhibitory Phylomer RAEKCGKLF (SEQ ID NO: 10) (Protein fragment of unknown organism) [Phylomer 6G8],PMA-dependent activation of the Srxn1 promoter (Srxn1-luciferase activity),[1],inhibited
same,PMA-induced transcription from control Srxn1 promoter with AP1 response elements ablated by mutation,[2],no effect
48E6: AP1-inhibitory Phylomer HSDRTADI (SEQ ID NO: 18) (Protein fragment of unknown organism) [Phylomer 48E6],PMA-dependent activation of the Srxn1 promoter (Srxn1-luciferase activity),[1],inhibited
same,PMA-induced transcription from control Srxn1 promoter with AP1 response elements ablated by mutation,[2],no effect
"PYC36: previously identified Phylomer GLQGRRRQGYQSIKP (SEQ ID NO: 5), positive control known to affect AP1-dependent transcription (Protein fragment of unknown organism) [reference compound]",AP1-dependent luciferase activity (transcription),AP1-luciferase reporter,inhibited transcription
same,PMA-dependent activation of the Srxn1 promoter (Srxn1-luciferase activity),[1],significant inhibition
